# Patent publication US9533961B2, “Molecules having certain pesticidal utilities, and intermediates, compositions, and processes related thereto” (priority 2014, dated 2017)
# Assays:
# Assay type in all cases: in vivo
# [1] = system: Beet Armyworm (Spodoptera exigua, LAPHEG) ("BAW"); test: Bioassay on Beet Armyworm (BAW), 128-well diet tray assay; conditions: 168 h, 50 μg/cm^2 on artificial diet, second instar larvae, five to seven days, 25° C., average of eight wells, read-out: BAW % Control (or Mortality) rating
# Description: (§1) Certain molecules disclosed in this document were tested against BAW and CEW using procedures described in the following examples. In the reporting of the results, the “BAW & CL Rating Table” was used (See Table Section).
# Bioassays on BAW were conducted using a 128-well diet tray assay. one to five second instar BAW larvae were placed in each well (3 mL) of the diet tray that had been previously filled with 1 mL of artificial diet to which 50 μg/cm^2 of the test compound (dissolved in 50 μL of 90:10 acetone-water mixture) had been applied (to each of eight wells) and then allowed to dry. Trays were covered with a clear self-adhesive cover and held at 25° C., 14:10 light-dark for five to seven days. Percent mortality was recorded for the larvae in each well; activity in the eight wells was then averaged. The results are indicated in the table entitled “Table ABC: Biological Results” (See Table Section).
# [2] = system: Cabbage Looper (Trichoplusia ni, TRIPNI) ("CL"); test: Bioassay on Cabbage Looper (CL), 128-well diet tray assay; conditions: 168 h, read-out: CL % Control (or Mortality) rating
# Description: as §1
# Bioassays on CL were conducted using a 128-well diet tray assay. one to five second instar CL larvae were placed in each well (3 mL) of the diet tray that had been previously filled with 1 mL of artificial diet to which 50 μg/cm^2 of the test compound (dissolved in 50 μL of 90:10 acetone-water mixture) had been applied (to each of eight wells) and then allowed to dry. Trays were covered with a clear self-adhesive cover and held at 25° C., 14:10 light-dark for five to seven days. Percent mortality was recorded for the larvae in each well; activity in the eight wells was then averaged. The results are indicated in the table entitled “Table ABC: Biological Results” (See Table Section).
# [3] = system: Yellow Fever Mosquito (Aedes aegypti, AEDSAE) ("YFM"); test: Bioassay on Yellow Fever Mosquito (YFM), 96-well plate larval assay; conditions: about 1 day-old larvae, from 4000 ppm master plate, scored on mortality after 3 days
# Description: Certain molecules disclosed in this document were tested against YFM using procedures described in the following paragraph. In the reporting of the results, the “YFM Rating Table” was used (See Table Section).
# Master plates containing 400 μg of a molecule dissolved in 100 μL of dimethyl sulfoxide (DMSO) (equivalent to a 4000 ppm solution) are used. A master plate of assembled molecules contains 15 μL per well. To this plate, 135 μL of a 90:10 water:acetone mixture is added to each well. A robot (Biomek® NXP Laboratory Automation Workstation) is programmed to dispense 15 μL aspirations from the master plate into an empty 96-well shallow plate (“daughter” plate). There are 6 reps (“daughter” plates) created per master. The created daughter plates are then immediately infested with YFM larvae.
# The day before plates are to be treated, mosquito eggs are placed in Millipore water containing liver powder to begin hatching (4 g. into 400 mL). After the daughter plates are created using the robot, they are infested with 220 μL of the liver powder/larval mosquito mixture (about 1 day-old larvae). After plates are infested with mosquito larvae, a non-evaporative lid is used to cover the plate to reduce drying. Plates are held at room temperature for 3 days prior to grading. After 3 days, each well is observed and scored based on mortality.
SMILES,mortality at 50 µg/cm2 [1],mortality at 50 µg/cm2 [2],YFM % Control (or Mortality) rating [3]
"O=C(Nc1ccc(-c2ncn(-c3ccc(OC(F)(F)F)cc3)n2)cc1)c1ccccc1Cc1ccccc1 [F3, 2-benzyl-N-(4-(1-(4-(trifluoromethoxy)phenyl)-1H-1,2,4-triazol-3-yl)phenyl)benzamide]",50 to 100%,50 to 100%,D (No activity noticed in this bioassay)
"O=C(Nc1ccc(-c2ncn(-c3ccc(OC(F)(F)F)cc3)n2)cc1)c1ccccc1Oc1ccccc1 [F4, 2-Phenoxy-N-(4-(1-(4-(trifluoromethoxy)phenyl)-1H-1,2,4-triazol-3-yl)phenyl)benzamide]",50 to 100%,50 to 100%,D (No activity noticed in this bioassay)
"O=C(Nc1ccc(-c2ncn(-c3ccc(OC(F)(F)F)cc3)n2)cc1)c1cccc(Oc2ccccc2)c1 [F5, 3-Phenoxy-N-(4-(1-(4-(trifluoromethoxy)phenyl)-1H-1,2,4-triazol-3-yl)phenyl)benzamide]",0%,50 to 100%,D (No activity noticed in this bioassay)
"O=C(Nc1ccc(-c2ncn(-c3ccc(OC(F)(F)F)cc3)n2)cc1)c1ccc(Oc2ccccc2)cc1 [F6, 4-Phenoxy-N-(4-(1-(4-(trifluoromethoxy)phenyl)-1H-1,2,4-triazol-3-yl)phenyl)benzamide]",50 to 100%,50 to 100%,D (No activity noticed in this bioassay)
"O=C(Nc1ccc(-c2ncn(-c3ccc(OC(F)(F)C(F)(F)F)cc3)n2)cc1)c1ccccc1Oc1ccccc1 [F8, N-(4-(1-(4-(Perfluoroethoxy)phenyl)-1H-1,2,4-triazol-3-yl)phenyl)-2-phenoxybenzamide]",0%,0%,D (No activity noticed in this bioassay)
"O=C(Nc1ccc(-c2ncn(-c3ccc(OC(F)(F)C(F)(F)F)cc3)n2)cc1)c1cccc(Oc2ccccc2)c1 [F9, N-(4-(1-(4-(perfluoroethoxy)phenyl)-1H-1,2,4-triazol-3-yl)phenyl)-3-phenoxybenzamide]",0%,0%,D (No activity noticed in this bioassay)
"O=C(Nc1ccc(-c2ncn(-c3ccc(OC(F)(F)C(F)(F)F)cc3)n2)cc1)c1ccc(Oc2ccccc2)cc1 [F10, N-(4-(1-(4-(perfluoroethoxy)phenyl)-1H-1,2,4-triazol-3-yl)phenyl)-4-phenoxybenzamide]",0%,0%,D (No activity noticed in this bioassay)
"COc1ccccc1C(=O)Nc1ccc(-c2ncn(-c3ccc(OC(F)(F)F)cc3)n2)cc1 [F11, 2-Methoxy-N-(4-(1-(4-(trifluoromethoxy)phenyl)-1H-1,2,4-triazol-3-yl)phenyl)benzamide]",50 to 100%,0%,D (No activity noticed in this bioassay)
"COc1ccccc1C(=O)Nc1ccc(-c2ncn(-c3ccc(OC(F)(F)C(F)(F)F)cc3)n2)cc1 [F12, 2-Methoxy-N-(4-(1-(4-(perfluoroethoxy)phenyl)-1H-1,2,4-triazol-3-yl)phenyl)benzamide]",0%,50 to 100%,D (No activity noticed in this bioassay)
"COc1cccc(C(=O)Nc2ccc(-c3ncn(-c4ccc(OC(F)(F)F)cc4)n3)cc2)c1 [F13, 3-Methoxy-N-(4-(1-(4-(trifluoromethoxy)phenyl)-1H-1,2,4-triazol-3-yl)phenyl)benzamide]",50 to 100%,50 to 100%,B (More than 0 - Less than 80)
"CC(C)c1cccc(C(=O)Nc2ccc(-c3ncn(-c4ccc(OC(F)(F)F)cc4)n3)cc2)c1 [F15, 3-Isopropyl-N-(4-(1-(4-(trifluoromethoxy)phenyl)-1H-1,2,4-triazol-3-yl)phenyl)benzamide]",0%,50 to 100%,D (No activity noticed in this bioassay)
"CC(C)c1cccc(C(=O)Nc2ccc(-c3ncn(-c4ccc(OC(F)(F)C(F)(F)F)cc4)n3)cc2)c1 [F16, 3-Isopropyl-N-(4-(1-(4-(perfluoroethoxy)phenyl)-1H-1,2,4-triazol-3-yl)phenyl)benzamide]",0%,50 to 100%,D (No activity noticed in this bioassay)
"CCOc1ccccc1Oc1ccccc1C(=O)Nc1ccc(-c2ncn(-c3ccc(OC(F)(F)F)cc3)n2)cc1 [F17, 2-(2-Ethoxyphenoxy)-N-(4-(1-(4-(trifluoromethoxy)phenyl)-1H-1,2,4-triazol-3-yl)phenyl)benzamide]",0 to 50%,0%,D (No activity noticed in this bioassay)
"CCOc1ccccc1Oc1ccccc1C(=O)Nc1ccc(-c2ncn(-c3ccc(OC(F)(F)C(F)(F)F)cc3)n2)cc1 [F18, 2-(2-Ethoxyphenoxy)-N-(4-(1-(4-(perfluoroethoxy)phenyl)-1H-1,2,4-triazol-3-yl)phenyl)benzamide]",0%,0%,D (No activity noticed in this bioassay)
"CC(C)COc1cccc(C(=O)Nc2ccc(-c3ncn(-c4ccc(OC(F)(F)F)cc4)n3)cc2)c1 [F19, 3-Isobutoxy-N-(4-(1-(4-(trifluoromethoxy)phenyl)-1H-1,2,4-triazol-3-yl)phenyl)benzamide]",0%,50 to 100%,D (No activity noticed in this bioassay)
"O=C(Nc1ccc(-c2ncn(-c3ccc(OC(F)(F)F)cc3)n2)cc1)c1cccc(COCC(F)(F)C(F)F)c1 [F20, 3-((2,2,3,3-Tetrafluoropropoxy)methyl)-N-(4-(1-(4-(trifluoromethoxy)phenyl)-1H-1,2,4-triazol-3-yl)phenyl)benzamide]",0%,0%,B (More than 0 - Less than 80)
"O=C(Nc1ccc(-c2ncn(-c3ccc(OC(F)(F)F)cc3)n2)cc1)c1cccc2c1OC(F)(F)O2 [F21, 2,2-Difluoro-N-(4-(1-(4-(trifluoromethoxy)phenyl)-1H-1,2,4-triazol-3-yl)phenyl)benzo[d][1,3]dioxole-4-carboxamide]",50 to 100%,50 to 100%,–
"O=C(Nc1ccc(-c2ncn(-c3ccc(OC(F)(F)F)cc3)n2)cc1)c1ccc2c(c1)OC(F)(F)O2 [F22, 2,2-Difluoro-N-(4-(1-(4-(trifluoromethoxy)phenyl)-1H-1,2,4-triazol-3-yl)phenyl)benzo[d][1,3]dioxole-5-carboxamide]",0%,0%,–
"O=C(Nc1ccc(-c2ncn(-c3ccc(OC(F)(F)F)cc3)n2)cc1)c1ccccc1COC1CCOCC1 [F23, 2-(((Tetrahydro-2H-pyran-4-yl)oxy)methyl)-N-(4-(1-(4-(trifluoromethoxy)phenyl)-1H-1,2,4-triazol-3-yl)phenyl)benzamide]",50 to 100%,50 to 100%,D (No activity noticed in this bioassay)
